Data: patent US9487559B2, “Compositions comprising multivalent synthetic ligands of surface nucleolin and glycosaminoglycans” (ELRO PHARMA SARL, priority 2010, dated 2016)
“Also recorded” adds a separate entry of the source.

Experiments:
[1] = tested on: U87-MG (Human glioblastoma-astrocytoma) cells; assay: Anchorage-dependent proliferation of U87-MG cells, MTT assay; format: cell-based; conditions: whatever the concentration used (0.1-1000 μg/ml)
[2] = tested on: chicken embryo chorioallantoic membrane; assay: In vivo angiogenesis, chicken embryo chorioallantoic membrane (CAM) assay; conditions: heparin or CS-C applied alone on the CAM, 48 h
Protocol: FIG. 21. […] An 1 cm2 area of chicken embryo CAM, restricted by a silicon ring, was incubated with 20 μM N6L or nanoparticles composed by 20 μM N6L and […] heparin or Cs-C. 48 h later, total vessels length was quantified. We observed that N6L had no effect on the in vivo angiogenesis, in contrast to the heparin or Cs-C composed nanoparticles that inhibited the development of new blood vessels (50% and 70%, respectively). Results are mean values±SD from at least 3 independent experiments.
To analyse the effects of N6L pre-incubated with sulfated glycoaminoglycans on in vivo angiogenesis using chicken embryo chorioallantoic membrane assay.
Leghorn fertilized eggs were incubated for 4 days at 37° C. A window was then opened on the eggshell, exposing the CAM. The window was covered with sterile tape, and the eggs were returned to the incubator. On day 9 of embryo development, […] of distilled water as a control or containing either 20 μM N6L, […] or 10 μg/ml CS-C alone or 20 μM N6L pre-incubated with either 10 μg/ml heparin or 10 μg/ml CS-C inside a silicone ring to restricted the area which is 1 cm^2. […] Photographs were taken and the total length of the vessels was quantified using PC image-analysis software (Scion Corporation, USA). […]

[3] = tested on: PANC-1 (Human pancreatic carcinoma) cells; assay: Anchorage-dependent proliferation of PANC-1 cells, MTT assay; format: cell-based; conditions: whatever the concentration used (0.1-1000 μg/ml)
PANC1 cells = assay: PANC1 proliferation, gemcitabine alone or combined with N6L, Cs-C or nanoparticles, MTT assay; format: cell-based, human; conditions: gemcitabine 1 nM to 50 nM, every day for 4 days, 5% FBS
Protocol: FIG. 22. Nanoparticles, but not N6L, induce the activity of gemcitabine. Similar number of PANC1 cells was treated with increasing concentrations of gemcitabine alone or in combination with N6L, Cs-C, or nanoparticles composed by Cs-C.

chondroitin-6-sulfate [Cs-C]
effect of GAG alone on U87-MG proliferation [1]: no effect
effect of GAG alone on in vivo angiogenesis [2]: no effect
effect of GAG alone on PANC-1 proliferation [3]: no effect

heparin
effect of GAG alone on U87-MG proliferation [1]: no effect
effect of GAG alone on in vivo angiogenesis [2]: no effect
effect of GAG alone on PANC-1 proliferation [3]: no effect

Nc1ccn([C@@H]2O[C@H](CO)[C@@H](O)C2(F)F)c(=O)n1 [gemcitabine]
inhibition of PANC1 proliferation by gemcitabine alone (PANC1 cells): slight inhibition; also recorded: slightly inhibited
